Measured values as given in patent US11298356B1, “Amorphous solid dispersions of dasatinib and uses thereof” (NANOCOPOEIA, LLC, priority 2020, dated 2022).
Converted amounts (≈) assume the structure as drawn.

Experiments:
[1] = Comparative Example; promptly after spray drying and drying
Procedure: (§1) Each of the resulting ASDs was placed on stability under accelerated conditions at 40° C./75% RH. The ASDs were assessed at t=0 (i.e., after the secondary drying step), 2 weeks, 1 month, 2 months, 3 months, and 6 months for appearance, amorphicity, glass transition temperature, water content, and assay/total impurities.
Amorphicity (i.e., the lack of crystallinity) for the ASDs was assessed by XRD. Diffraction patterns were obtained using a Rigaku MiniFlex 600. The X-ray source was a long anode Cu Kα. Samples were prepared by placing a small amount of ASD powder on a Rigaku zero-background sample holder with a 0.1 mm indent. A glass slide was then used to firmly pack the powder and ensure the surface of the sample was level with the edge of the sample holder.
Rigaku Data Analysis Software PDXL 2.4.2.0 was used to determine crystallinity. Briefly, a linear background was obtained by connecting the beginning and end of each diffractogram. Peaks were then fitted to split pseudo-Voigt shape by the Lorentzian function. Generally, narrow peaks with full width at half maximum (FWHM) less than 1° were assigned as crystalline phase. If no crystalline phase was detected, the sample was deemed to be amorphous.

[2] = Comparative Example; promptly after preparation
Procedure: as §1
In general, about 5-10 mg of ASD powder was loaded in a TA Tzero low-mass aluminum pan and sealed with a Tzero lid.

[3] = Aqueous solubility of dasatinib (internal experimentation); assay type: physicochemical; details: aqueous medium
Source text: Dasatinib in crystalline forms is categorized as a Biopharmaceutical Classification System (“BCS”) Class II (low solubility/high permeability) compound. […] A preparation of dasatinib in a form that is intended to enhance its solubility could increase its bioavailability. One approach for enhancing solubility is to produce an amorphous solid dispersion.

[4] = crystalline forms; low solubility/high permeability; cited from earlier work

| XRD crystallinity [1] | glass transition temperature (Tg) [2] [°C] | solubility ([3]; pH 2, simulated gastric fluid) [µg/mL] | solubility ([3]; pH 6.2, aqueous buffer) [µg/mL] | Structure (SMILES) | Biopharmaceutical Classification System (BCS) class [4] |
| --- | --- | --- | --- | --- | --- |
| exhibited crystalline character | 125.61 | – | – | Cc1nc(Nc2ncc(C(=O)Nc3c(C)cccc3Cl)s2)cc(N2CCN(CCO)CC2)n1 [spray-dried material of 100% dasatinib] | – |
| – | – | ~1400 (≈ 2870 µM) | < 1 | Cc1nc(Nc2ncc(C(=O)Nc3c(C)cccc3Cl)s2)cc(N2CCN(CCO)CC2)n1 [Dasatinib, N-(2-chloro-6-methylphenyl)-2-[[6-[4-(2-hydroxyethyl)-1-piperazinyl]-2-methyl-4-pyrimidinyl]amino]-5-thiazolecarboxamide] | Class II |
